Measured values: PubChem BioAssay (NCI)
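A five-concentration, 48-hour dose response in 96-well plates underlies each endpoint, interpolated linearly between surrounding concentrations. Abbreviation: GI50, concentration required for 50% inhibition of growth. TGI is the concentration that stops growth completely.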

Experiments:
Assay in all cases: inhibition of tumour cell growth, NCI panel, 48 h
[1] = tested on: UACC-257 melanoma
[2] = tested on: RXF 393 renal
[3] = tested on: A549 NSCLC
[4] = tested on: K-562 leukemia
[5] = tested on: MDA-MB-231 breast
[6] = tested on: KM12 colon
[7] = tested on: SN12C renal
[8] = tested on: HL-60(TB) leukemia
[9] = tested on: M14 melanoma
[10] = tested on: EKVX NSCLC
[11] = tested on: UO-31 renal
[12] = tested on: CAKI-1 renal
[13] = tested on: HS 578T breast
[14] = tested on: 786-0 renal
[15] = tested on: HCT-15 colon
[16] = tested on: A498 renal
[17] = tested on: SF-295 CNS
[18] = tested on: RPMI-8226 leukemia
[19] = tested on: HOP-62 NSCLC
[20] = tested on: PC-3 prostate
[21] = tested on: DU-145 prostate
[22] = tested on: HCT-116 colon
[23] = tested on: T-47D breast
[24] = tested on: OVCAR-5 ovarian
[25] = tested on: BT-549 breast
[26] = tested on: OVCAR-3 ovarian
[27] = tested on: LOX IMVI melanoma
[28] = tested on: MOLT-4 leukemia
[29] = tested on: SF-539 CNS
[30] = tested on: MALME-3M melanoma
[31] = tested on: CCRF-CEM leukemia
[32] = tested on: SK-MEL-28 melanoma
[33] = tested on: NCI-H23 lung
[34] = tested on: U251 CNS
[35] = tested on: HCC-2998 colon
[36] = tested on: HOP-92 NSCLC
[37] = tested on: SNB-75 CNS
[38] = tested on: MCF7 breast
[39] = tested on: IGROV1 ovarian
[40] = tested on: SW-620 colon
[41] = tested on: HT29 colon
[42] = tested on: SK-MEL-5 melanoma
[43] = tested on: SF-268 CNS
[44] = tested on: SR leukemia
[45] = tested on: NCI-H226 lung
[46] = tested on: SNB-19 CNS
[47] = tested on: NCI-H522 lung
[48] = tested on: TK-10 renal
[49] = tested on: OVCAR-8 ovarian
[50] = tested on: OVCAR-4 ovarian
[51] = tested on: ACHN renal
[52] = tested on: MDA-MB-435
[53] = tested on: UACC-62 melanoma
[54] = tested on: NCI-H460 lung
[55] = tested on: COLO 205 colon
[56] = tested on: SK-OV-3 ovarian
[57] = tested on: NCI/ADR-RES ovarian
[58] = tested on: SK-MEL-2 melanoma

SMILES: O=S(=O)(c1cc(Cl)ccc1Cl)N1CCN(c2ccc(Cl)c(Cl)c2)CC1
- TGI [1]: 92.7 µM
- TGI [2]: 52.2 µM
- TGI [3]: > 100 µM
- TGI [4]: > 100 µM
- TGI [5]: > 100 µM
- TGI [6]: > 100 µM
- TGI [7]: > 100 µM
- TGI [8]: > 100 µM
- TGI [9]: > 100 µM
- TGI [10]: > 100 µM
- TGI [11]: > 100 µM
- TGI [12]: 45.3 µM
- TGI [13]: > 100 µM
- TGI [14]: 34.3 µM
- TGI [15]: > 100 µM
- TGI [16]: 56.8 µM
- TGI [17]: 50.5 µM
- TGI [18]: > 100 µM
- TGI [19]: 39.6 µM
- TGI [20]: > 100 µM
- TGI [21]: > 100 µM
- TGI [22]: > 100 µM
- TGI [23]: > 100 µM
- TGI [24]: > 100 µM
- TGI [25]: > 100 µM
- TGI [26]: 38.5 µM
- TGI [27]: > 100 µM
- TGI [28]: > 100 µM
- TGI [29]: 53.5 µM
- TGI [30]: > 100 µM
- TGI [31]: > 100 µM
- TGI [32]: > 100 µM
- TGI [33]: > 100 µM
- TGI [34]: 54.8 µM
- TGI [35]: > 100 µM
- TGI [36]: 35.4 µM
- TGI [37]: 33.1 µM
- TGI [38]: > 100 µM
- TGI [39]: > 100 µM
- TGI [40]: > 100 µM
- TGI [41]: > 100 µM
- TGI [42]: 51.5 µM
- TGI [43]: 85.9 µM
- TGI [44]: > 100 µM
- TGI [45]: 54.1 µM
- TGI [46]: 32.1 µM
- TGI [47]: 56.5 µM
- TGI [48]: 54 µM
- TGI [49]: 51.4 µM
- TGI [50]: 32.4 µM
- TGI [51]: 95.9 µM

SMILES: CCOc1ccc2ccccc2c1NC1=NCCO1
- TGI [1]: > 100 µM
- TGI [2]: > 100 µM
- TGI [52]: > 100 µM
- TGI [3]: > 100 µM
- TGI [4]: 61.3 µM
- TGI [5]: > 100 µM
- TGI [53]: > 100 µM
- TGI [6]: 76.7 µM
- TGI [7]: > 100 µM
- TGI [54]: 57.7 µM
- TGI [8]: 49.6 µM
- TGI [9]: > 100 µM
- TGI [10]: > 100 µM
- TGI [11]: 64.7 µM
- TGI [55]: > 100 µM
- TGI [13]: 78.2 µM
- TGI [14]: > 100 µM
- TGI [15]: > 100 µM
- TGI [16]: 93.8 µM
- TGI [17]: 65.5 µM
- TGI [18]: 59.4 µM
- TGI [19]: 74.2 µM
- TGI [21]: > 100 µM
- TGI [22]: > 100 µM
- TGI [23]: > 100 µM
- TGI [24]: > 100 µM
- TGI [56]: > 100 µM
- TGI [28]: 84 µM
- TGI [29]: > 100 µM
- TGI [30]: > 100 µM
- TGI [31]: > 100 µM
- TGI [32]: > 100 µM
- TGI [33]: > 100 µM
- TGI [34]: > 100 µM
- TGI [35]: > 100 µM
- TGI [36]: 42.2 µM
- TGI [37]: > 100 µM
- TGI [38]: > 100 µM
- TGI [39]: > 100 µM
- TGI [40]: > 100 µM
- TGI [41]: > 100 µM
- TGI [42]: > 100 µM
- TGI [43]: > 100 µM
- TGI [44]: > 100 µM
- TGI [45]: 85.4 µM
- TGI [46]: > 100 µM
- TGI [57]: > 100 µM
- TGI [48]: > 100 µM
- TGI [49]: > 100 µM
- TGI [50]: > 100 µM
- TGI [51]: > 100 µM

SMILES: N#C/C(=C\c1c(-c2ccccc2)[nH]c2ccccc12)C(=O)c1ccc(Cl)cc1
- GI50 [1]: 30.2 µM
- TGI [1]: > 87.3 µM
- GI50 [2]: 19.5 µM
- TGI [2]: > 100 µM
- GI50 [3]: 8.44 µM
- TGI [3]: > 68.8 µM
- GI50 [4]: 336 nM
- TGI [4]: 5.32 µM
- GI50 [5]: 4.09 µM
- TGI [5]: 47.8 µM
- GI50 [53]: 1460 nM
- TGI [53]: 33.9 µM
- GI50 [6]: 735 nM
- TGI [6]: 23.6 µM
- GI50 [7]: 6.91 µM
- TGI [7]: > 78.7 µM
- GI50 [54]: 1020 nM
- TGI [54]: 11.6 µM
- GI50 [8]: 385 nM
- TGI [8]: 3.17 µM
- GI50 [9]: 725 nM
- TGI [9]: > 100 µM
- GI50 [10]: 5.51 µM
- TGI [10]: > 100 µM
- GI50 [11]: 5.85 µM
- TGI [11]: 36.3 µM
- GI50 [12]: 1230 nM
- TGI [12]: > 31.2 µM
- GI50 [55]: 814 nM
- TGI [55]: 5.43 µM
- GI50 [13]: 1560 nM
- TGI [13]: 9.27 µM
- GI50 [14]: 5.53 µM
- TGI [14]: 23.5 µM
- GI50 [15]: 1380 nM
- TGI [15]: > 100 µM
- GI50 [16]: 2820 nM
- TGI [16]: 14.7 µM
- GI50 [58]: 7.09 µM
- TGI [58]: > 39.3 µM
- GI50 [17]: 2180 nM
- TGI [17]: 16.4 µM
- GI50 [18]: 1320 nM
- TGI [18]: 20 µM
- GI50 [19]: 5.41 µM
- TGI [19]: 26 µM
- GI50 [20]: 3.42 µM
- TGI [20]: > 70.3 µM
- GI50 [21]: 3.54 µM
- TGI [21]: 16.7 µM
- GI50 [22]: 680 nM
- TGI [22]: 23.9 µM
- GI50 [23]: 2890 nM
- TGI [23]: 18.4 µM
- GI50 [24]: 8.58 µM
- TGI [24]: 46.9 µM
- GI50 [56]: 3.02 µM
- TGI [56]: 14.8 µM
- GI50 [25]: 5.83 µM
- TGI [25]: 79.7 µM
- GI50 [26]: 1520 nM
- TGI [26]: 4.65 µM
- GI50 [27]: 4.76 µM
- TGI [27]: > 100 µM
- GI50 [28]: 1010 nM
- TGI [28]: 8.87 µM
- GI50 [29]: 715 nM
- TGI [29]: 3.99 µM
- GI50 [30]: 3.61 µM
- TGI [30]: 30.2 µM
- GI50 [31]: 2480 nM
- TGI [31]: > 100 µM
- GI50 [32]: 3.33 µM
- TGI [32]: 41.2 µM
- GI50 [33]: 3.71 µM
- TGI [33]: 38.5 µM
- GI50 [34]: 1110 nM
- TGI [34]: 16.2 µM
- GI50 [35]: 2110 nM
- TGI [35]: 19.5 µM
- GI50 [36]: 3.35 µM
- TGI [36]: 22.1 µM
- GI50 [37]: 1430 nM
- TGI [37]: 8.7 µM
- GI50 [38]: 753 nM
- TGI [38]: 14.5 µM
- GI50 [39]: 4.65 µM
- TGI [39]: 41.5 µM
- GI50 [40]: 554 nM
- TGI [40]: > 100 µM
- GI50 [41]: 476 nM
- TGI [41]: 21.4 µM
- GI50 [42]: 782 nM
- TGI [42]: 12.5 µM
- GI50 [43]: 4.55 µM
- TGI [43]: 24.8 µM
- GI50 [45]: 7.5 µM
- TGI [45]: 47.2 µM
- GI50 [46]: 3.07 µM
- TGI [46]: 20.2 µM
- GI50 [47]: 2890 nM
- TGI [47]: > 30 µM
- GI50 [57]: 575 nM
- TGI [57]: 12.6 µM
- GI50 [48]: 8.6 µM
- TGI [48]: 43.8 µM
- GI50 [49]: 6.16 µM
- TGI [49]: > 47.9 µM
- GI50 [50]: 3.68 µM
- TGI [50]: 22.8 µM
- GI50 [51]: 6.69 µM
- TGI [51]: > 55 µM
